# Measured values from US8685974B2 (Bayer CropScience AG, priority 2009, dated 2014).
# Where a name gives a salt, the structure may show the parent alone.
# Experiment: physchem
# Conditions: pH 2.7
SMILES,log p,chromatographic logP
Cc1n[nH]c(-c2ccc(Cl)s2)c1-c1ccncc1 [4-[5-(5-Chloro-2-thienyl)-3-methyl-1H-pyrazol-4-yl]pyridine],1.07,
CCC(C)n1ncc(-c2ccncc2)c1-c1ccc(F)s1 (centres unmarked) [4-[1-sec-butyl-5-(5-fluoro-2-thienyl)-1H-pyrazol-4-yl]pyridine],1.84,
CC(C)n1nc(-c2ccc(Cl)s2)c(-c2ccncc2)c1C1CC1 [4-[5-Cyclopropyl-1-isopropyl-3-(5-chloro-2-thienyl)-1H-pyrazol-4-yl]pyridine],2.44,
CCC[CH2][Sn]([CH2]CCC)([CH2]CCC)[c]1c(-c2ccncc2)cnn1C1CCCCO1 (centres unmarked) [4-[1-(tetrahydro-2H-pyran-2-yl)-5-(tributylstannyl)-1H-pyrazol-4-yl]pyridine],4.89,
CC(C)n1cc(-c2ccnc(NCc3ccccc3)n2)c(-c2ccc(Cl)s2)n1 [N-Benzyl-4-[3-(5-chloro-2-thienyl)-1-isopropyl-1H-pyrazol-4-yl]pyrimidin-2-amine],3.81,
C#CCNc1cc(-c2cn(CC(C)C)nc2-c2ccc(Cl)s2)ccn1 [2-Propargylamino-4-[1-isobutyl-3-(5-chloro-2-thienyl)-1H-pyrazol-4-yl]pyridine],2.3,
Clc1csc(-c2cc[nH]n2)c1 [3-(4-Chloro-2-thienyl)-1H-pyrazole],1.91,
CCC(C)n1cc(-c2ccncc2)c(-c2ccc(F)s2)n1 (centres unmarked) [4-[1-sec-butyl-3-(5-fluoro-2-thienyl)-1H-pyrazol-4-yl]pyridine],1.78,
CCC(C)n1cc(-c2ccncc2)c(-c2ccc(Cl)s2)n1 (centres unmarked) [4-[1-sec-Butyl-3-(5-chloro-2-thienyl)-1H-pyrazol-4-yl]pyridine],2.1,
"CCC(=O)Nc1cc(-c2cn(CC)nc2-c2cccs2)ccn1 [Example 149, N-{4-[1-Ethyl-3-(2-thienyl)-1H-pyrazol-4-yl]pyridin-2-yl}propanamide]",,1.65
"CC(C)n1ccc(-c2cc(Br)c(Br)s2)n1 [3-(4,5-Dibromo-2-thienyl)-1-isopropyl-1H-pyrazole]",4.64,
CCC(C)n1cc(-c2ccnc(Br)c2)c(-c2ccc(Cl)s2)n1 (centres unmarked) [2-Bromo-4-[1-sec-butyl-3-(5-chloro-2-thienyl)-1H-pyrazol-4-yl]pyridine],5.03,
CCC(C)n1cc(-c2ccnc(C(=O)NC(C)C)c2)c(-c2ccc(Cl)s2)n1 (centres unmarked) [4-[1-sec-Butyl-3-(5-chloro-2-thienyl)-1H-pyrazol-4-yl]-N-isopropylpyridine-2-carboxamide],4.82,
CN(C)C=CC(=O)c1cc(Br)cs1 [1-(4-Bromo-2-thienyl)-3-(dimethylamino)prop-2-en-1-one],1.94,
CN(C)C=CC(=O)c1cccs1 [3-(Dimethylamino)-1-(2-thienyl)prop-2-en-1-one],1.33,
CSc1nccc(-c2cn(C(C)C)nc2-c2ccc(Cl)s2)n1 [4-[3-(5-Chloro-2-thienyl)-1-isopropyl-1H-pyrazol-4-yl]-2-(methylsulfanyl)pyrimidine],4.44,
CC(C)n1cc(-c2ccncc2)c(-c2ccc(F)s2)n1 [4-[1-Isopropyl-3-(5-fluoro-2-thienyl)-1H-pyrazol-4-yl]pyridine],1.53,
CC(C)Cn1cc(-c2cc(N)ncn2)c(-c2ccc(Cl)s2)n1 [6-[3-(5-chloro-2-thienyl)-1-isobutyl-1H-pyrazol-4-yl]pyrimidin-4-amine],1.97,
CC(C)Cn1ncc(-c2ccnc(Cl)c2)c1-c1ccc(Cl)s1 [2-Chloro-4-[1-isobutyl-5-(5-chloro-2-thienyl)-1H-pyrazol-4-yl]pyridine],4.62,
CC(C)Cn1cc(-c2ccnc3ccccc23)c(-c2ccc(Cl)s2)n1 [4-[3-(5-chloro-2-thienyl)-1-isobutyl-1H-pyrazol-4-yl]quinoline],3.69,
CCCn1nccc1-c1cc(C)cs1 [5-(4-Methyl-2-thienyl)-1-propyl-1H-pyrazole],3.1,
CC(=O)Nc1nccc(-c2cn(C(C)C)nc2-c2ccc(Cl)s2)n1 [N-{4-[3-(5-Chloro-2-thienyl)-1-isopropyl-1H-pyrazol-4-yl]pyrimidin-2-yl}acetamide],2.59,

SMILES,log p,chromatographic logP
CC(C)Nc1nccc(CC(=O)c2ccc(Cl)s2)n1,2.37,
CCCc1cc(-c2cccs2)nn1C [1-Methyl-5-propyl-3-(2-thienyl)-1H-pyrazole],2.9,
Clc1ccc(-c2nn(C3CC3)cc2-c2ccncc2)s1 [4-[1-Cyclopropyl-3-(5-chloro-2-thienyl)-1H-pyrazol-4-yl]pyridine],1.62,
O=C(Cc1ccncc1)c1ccc(Cl)s1 [1-(5-chloro-2-thienyl)-2-(pyridin-4-yl)ethanone],1.17,
CCn1ccc(-c2cccs2)n1 [1-Ethyl-3-(2-thienyl)-1H-pyrazole],2.14,
CC(C)n1ncc(-c2ccncc2)c1-c1ccc(Cl)s1 [4-[1-Isopropyl-5-(5-chloro-2-thienyl)-1H-pyrazol-4-yl]pyridine],1.7,
CCCc1cc(-c2sccc2C)n(C)n1 [1-Methyl-5-(3-methyl-2-thienyl)-3-propyl-1H-pyrazole],3.34,
CCC(C)n1cc(-c2ccnc(NC(C)=O)c2)c(-c2ccc(Cl)s2)n1 (centres unmarked) [N-{4-[1-sec-butyl-3-(5-chloro-2-thienyl)-1H-pyrazol-4-yl]pyridin-2-yl}acetamide],2.94,
CC(C)n1ncc(I)c1-c1cccs1 [4-Iodo-1-isopropyl-5-(2-thienyl)-1H-pyrazole],3.66,
CC(C)Cn1cc(-c2ccncc2)c(-c2ccc(C#N)s2)n1 [4-[1-Isobutyl-3-(5-cyano-2-thienyl)-1H-pyrazol-4-yl]pyridine],1.74,
N#Cc1[nH]nc(-c2ccc(Cl)s2)c1-c1ccncc1 [3-(5-Chloro-2-thienyl)-4-(pyridin-4-yl)-1H-pyrazole-5-carbonitrile],1.53,
CC(C)n1ncc(-c2ccncc2)c1-c1ccc(F)s1 [4-[1-Isopropyl-5-(5-fluoro-2-thienyl)-1H-pyrazol-4-yl]pyridine],1.51,
Cc1csc(-c2ccn(C(C)C)n2)c1 [1-Isopropyl-3-(4-methyl-2-thienyl)-1H-pyrazole],3.14,
Cc1csc(-c2cc[nH]n2)c1 [3-(4-Methyl-2-thienyl)-1H-pyrazole],1.72,
CSc1nccc(CC(=O)c2ccc(Cl)s2)n1 [1-(5-Chloro-2-thienyl)-2-[2-(methylsulfanyl)pyrimidin-4-yl]ethanone],2.98,
Clc1cc(-c2c[nH]nc2-c2ccc(Cl)s2)ccn1 [2-Chloro-4-[3-(5-chloro-2-thienyl)-1H-pyrazol-4-yl]pyridine],2.75,
Cc1csc(C(=O)C=CN(C)C)c1 [3-(Dimethylamino)-1-(4-methyl-2-thienyl)prop-2-en-1-one],1.65,
CCC(C)n1nccc1-c1cc(C)cs1 (centres unmarked) [1-sec-Butyl-5-(4-methyl-2-thienyl)-1H-pyrazole],3.65,
Brc1csc(-c2cc[nH]n2)c1 [3-(4-Bromo-2-thienyl)-1H-pyrazole],1.99,
CC(=O)c1ccc(-c2n[nH]cc2-c2ccncc2)s1 [1-{5-[4-(pyridin-4-yl)-1H-pyrazol-3-yl]-2-thienyl}ethanone hydrochloride],0.62,
CN(C)C=C(C(=O)c1ccc(Cl)s1)c1ccncc1 [1-(5-chloro-2-thienyl)-3-(dimethylamino)-2-(pyridin-4-yl)prop-2-en-1-one],1.07,

# Same assay, conditions: pH 7.8
row,SMILES,chromatographic logP
1,"CCC(=O)Nc1cc(-c2cn(CC)nc2-c2cccs2)ccn1 [Example 149, N-{4-[1-Ethyl-3-(2-thienyl)-1H-pyrazol-4-yl]pyridin-2-yl}propanamide]",2.26
